Laboratory results published in ChEMBL document CHEMBL1201862, “PubChem BioAssay data set” (2004).
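Tested at 5 concentrations; 48 h exposure; 96-well plates; endpoints linearly interpolated, else capped at highest concentration. GI50 is the concentration that inhibits growth by half.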 The source made the active and inactive calls. Rule as the data show it: active = GI50 up to about 1.1 µM and inactive = higher.

Experiments:
Assay in all cases: growth of human tumour cells (NCI), 48 h
K562 = tested on: K562
SF-539 = tested on: SF-539
HOP-62 = tested on: HOP-62
TK-10 = tested on: TK-10
NCI-H23 = tested on: NCI-H23
ACHN = tested on: ACHN
NCI/ADR-RES = tested on: NCI/ADR-RES
OVCAR-5 = tested on: OVCAR-5
A549 = tested on: A549
U-251 = tested on: U-251
HT-29 = tested on: HT-29
HCT-116 = tested on: HCT-116
SF-268 = tested on: SF-268
SK-MEL-28 = tested on: SK-MEL-28
NCI-H522 = tested on: NCI-H522
HCT-15 = tested on: HCT-15
CAKI-1 = tested on: CAKI-1
MCF7 = tested on: MCF7
CCRF-CEM = tested on: CCRF-CEM
SN12C = tested on: SN12C
NCI-H460 = tested on: NCI-H460
M14 = tested on: M14
HCC 2998 = tested on: HCC 2998
A498 = tested on: A498
RXF 393 = tested on: RXF 393
EKVX = tested on: EKVX
Hs-578T = tested on: Hs-578T
PC-3 = tested on: PC-3
HOP-92 = tested on: HOP-92
786-0 = tested on: 786-0
MDA-MB-231 = tested on: MDA-MB-231
RPMI-8226 = tested on: RPMI-8226
OVCAR-8 = tested on: OVCAR-8
Malme-3M = tested on: Malme-3M
OVCAR-3 = tested on: OVCAR-3
KM12 = tested on: KM12
NCI-H226 = tested on: NCI-H226
SF-295 = tested on: SF-295
SK-MEL-5 = tested on: SK-MEL-5
UO-31 = tested on: UO-31
UACC-257 = tested on: UACC-257
SR = tested on: SR
IGROV-1 = tested on: IGROV-1
BT-549 = tested on: BT-549
MOLT-4 = tested on: MOLT-4
DU-145 = tested on: DU-145
MDA-MB-435 = tested on: MDA-MB-435
UACC-62 = tested on: UACC-62
LOX IMVI = tested on: LOX IMVI
OVCAR-4 = tested on: OVCAR-4
SK-MEL-2 = tested on: SK-MEL-2
SW-620 = tested on: SW-620
SNB-19 = tested on: SNB-19
HL-60 = tested on: HL-60
MDA-N = tested on: MDA-N
SK-OV-3 = tested on: SK-OV-3
SNB-75 = tested on: SNB-75
COLO 205 = tested on: COLO 205

Cc1sc2nc(-c3cc([N+](=O)[O-])c(Cl)cc3Cl)c(/C=N/NC(=N)N)n2c1C was tested, and the GI50 (K562) was 3.06 µM (inactive), the GI50 (SF-539) was 30.5 µM (inactive) and the GI50 (HOP-62) was 7.66 µM (inactive). For the same compound, the GI50 (TK-10) was 13.9 µM (inactive), the GI50 (NCI-H23) was 4.08 µM (inactive) and the GI50 (ACHN) was 5.22 µM (inactive). The GI50 (NCI/ADR-RES) was 31.7 µM (inactive), the GI50 (OVCAR-5) was 32.2 µM (inactive) and the GI50 (A549) was 22.9 µM (inactive). For the same compound, the GI50 (U-251) was 4.02 µM (inactive), the GI50 (HT-29) was 3.25 µM (inactive) and the GI50 (HCT-116) was 4.15 µM (inactive). The GI50 (SF-268) was 10.5 µM (inactive), the GI50 (SK-MEL-28) was 2.4 µM (inactive) and the GI50 (NCI-H522) was 8.47 µM (inactive). For the same compound, the GI50 (HCT-15) was 3.61 µM, the GI50 (CAKI-1) was 11.9 µM (inactive) and the GI50 (MCF7) was 2.86 µM (inactive). For the same compound, the GI50 (CCRF-CEM) was 4.31 µM (inactive), the GI50 (SN12C) was 5.65 µM (inactive) and the GI50 (NCI-H460) was 6.34 µM (inactive). The GI50 (M14) was 2.76 µM (inactive), the GI50 (HCC 2998) was 2.34 µM (inactive) and the GI50 (A498) was 19.5 µM (inactive). For the same compound, the GI50 (RXF 393) was 5.09 µM (inactive), the GI50 (EKVX) was 19.8 µM (inactive) and the GI50 (Hs-578T) was 16.7 µM (inactive). For the same compound, the GI50 (PC-3) was 5.69 µM (inactive), the GI50 (HOP-92) was 7.13 µM (inactive) and the GI50 (786-0) was 5.46 µM (inactive). The GI50 (MDA-MB-231) was 6.61 µM (inactive), the GI50 (RPMI-8226) was 4.5 µM (inactive) and the GI50 (OVCAR-8) was 5.7 µM (inactive). For the same compound, the GI50 (Malme-3M) was 13.8 µM (inactive), the GI50 (OVCAR-3) was 4.06 µM (inactive) and the GI50 (KM12) was 3.63 µM (inactive). The GI50 (NCI-H226) was 26.8 µM (inactive), the GI50 (SF-295) was 13 µM (inactive) and the GI50 (SK-MEL-5) was 6.3 µM (inactive). The GI50 (UO-31) was 11.4 µM (inactive), the GI50 (UACC-257) was 10 µM (inactive) and the GI50 (SR) was 0.411 µM (active). For the same compound, the GI50 (IGROV-1) was 2.34 µM (inactive), the GI50 (BT-549) was 3.59 µM (inactive) and the GI50 (MOLT-4) was 1.62 µM (inactive). For the same compound, the GI50 (DU-145) was 14.5 µM (inactive), the GI50 (MDA-MB-435) was 3.72 µM (inactive) and the GI50 (UACC-62) was 14.7 µM (inactive). For the same compound, the GI50 (LOX IMVI) was 2.29 µM (inactive), the GI50 (OVCAR-4) was 2.36 µM (inactive) and the GI50 (SK-MEL-2) was 1.97 µM (inactive). The GI50 (SW-620) was 13.6 µM (inactive).

Cc1ccc(S(=O)(=O)NC(=O)Nc2ccc(S(N)(=O)=O)cc2S(N)(=O)=O)cc1 was tested, and the GI50 (K562) was > 100 µM (inactive), the GI50 (HOP-62) was > 100 µM (inactive) and the GI50 (TK-10) was > 100 µM (inactive). For the same compound, the GI50 (NCI-H23) was > 100 µM (inactive), the GI50 (NCI/ADR-RES) was > 100 µM (inactive) and the GI50 (OVCAR-5) was > 100 µM (inactive). The GI50 (A549) was > 100 µM (inactive), the GI50 (U-251) was > 100 µM (inactive) and the GI50 (HT-29) was > 100 µM (inactive). The GI50 (HCT-116) was > 100 µM (inactive), the GI50 (SF-268) was > 100 µM (inactive) and the GI50 (SNB-19) was > 100 µM (inactive). For the same compound, the GI50 (SK-MEL-28) was > 100 µM (inactive), the GI50 (NCI-H522) was > 100 µM (inactive) and the GI50 (HCT-15) was > 100 µM. The GI50 (CAKI-1) was > 100 µM (inactive), the GI50 (MCF7) was > 100 µM (inactive) and the GI50 (CCRF-CEM) was > 100 µM (inactive). For the same compound, the GI50 (SN12C) was > 100 µM (inactive), the GI50 (HL-60) was > 100 µM (inactive) and the GI50 (MDA-N) was > 100 µM (inactive). For the same compound, the GI50 (M14) was > 100 µM (inactive), the GI50 (RXF 393) was > 100 µM (inactive) and the GI50 (EKVX) was > 100 µM (inactive). For the same compound, the GI50 (Hs-578T) was > 100 µM (inactive), the GI50 (PC-3) was > 100 µM (inactive) and the GI50 (HOP-92) was > 100 µM (inactive). For the same compound, the GI50 (786-0) was > 100 µM (inactive), the GI50 (MDA-MB-231) was > 100 µM (inactive) and the GI50 (RPMI-8226) was > 100 µM (inactive). The GI50 (OVCAR-8) was > 100 µM (inactive), the GI50 (Malme-3M) was > 100 µM (inactive) and the GI50 (OVCAR-3) was > 100 µM (inactive). For the same compound, the GI50 (SK-OV-3) was > 100 µM (inactive), the GI50 (KM12) was > 100 µM (inactive) and the GI50 (NCI-H226) was > 100 µM (inactive). For the same compound, the GI50 (SF-295) was > 100 µM (inactive), the GI50 (SK-MEL-5) was > 100 µM (inactive) and the GI50 (UO-31) was > 100 µM (inactive). For the same compound, the GI50 (SNB-75) was > 100 µM (inactive), the GI50 (UACC-257) was > 100 µM (inactive) and the GI50 (IGROV-1) was > 100 µM (inactive). The GI50 (BT-549) was > 100 µM (inactive), the GI50 (MOLT-4) was > 100 µM (inactive) and the GI50 (DU-145) was > 100 µM (inactive). The GI50 (MDA-MB-435) was > 100 µM (inactive), the GI50 (UACC-62) was > 100 µM (inactive) and the GI50 (LOX IMVI) was > 100 µM (inactive). For the same compound, the GI50 (OVCAR-4) was > 100 µM (inactive), the GI50 (COLO 205) was > 100 µM (inactive) and the GI50 (SK-MEL-2) was > 100 µM (inactive). The GI50 (SW-620) was > 100 µM (inactive).

For CCOC(=O)c1ccc(N(CCOS(=O)(=O)c2ccc(C)cc2)CCOS(=O)(=O)c2ccc(C)cc2)cc1, the GI50 (K562) was > 100 µM (inactive), the GI50 (SF-539) was < 0.01 µM (active) and the GI50 (TK-10) was > 100 µM (inactive). The GI50 (NCI-H23) was > 100 µM (inactive), the GI50 (ACHN) was 6.78 µM (inactive) and the GI50 (NCI/ADR-RES) was > 100 µM (inactive). For the same compound, the GI50 (OVCAR-5) was > 100 µM (inactive), the GI50 (A549) was 8.91 µM (inactive) and the GI50 (U-251) was 6.76 µM (inactive). For the same compound, the GI50 (HT-29) was > 100 µM (inactive), the GI50 (HCT-116) was 27.3 µM (inactive) and the GI50 (SF-268) was > 100 µM (inactive). The GI50 (SNB-19) was > 100 µM (inactive), the GI50 (NCI-H522) was > 100 µM (inactive) and the GI50 (HCT-15) was > 100 µM. The GI50 (CAKI-1) was 4.94 µM (inactive), the GI50 (MCF7) was 7.05 µM (inactive) and the GI50 (CCRF-CEM) was 2.47 µM (inactive). For the same compound, the GI50 (SN12C) was < 0.01 µM (active), the GI50 (NCI-H460) was 4.66 µM (inactive) and the GI50 (MDA-N) was > 100 µM (inactive). For the same compound, the GI50 (M14) was > 100 µM (inactive), the GI50 (HCC 2998) was > 100 µM (inactive) and the GI50 (A498) was > 100 µM (inactive). The GI50 (RXF 393) was 4.49 µM (inactive), the GI50 (EKVX) was > 100 µM (inactive) and the GI50 (Hs-578T) was > 100 µM (inactive). The GI50 (PC-3) was 17 µM (inactive), the GI50 (HOP-92) was > 100 µM (inactive) and the GI50 (MDA-MB-231) was 27.2 µM (inactive). The GI50 (RPMI-8226) was 10 µM (inactive), the GI50 (OVCAR-8) was > 100 µM (inactive) and the GI50 (Malme-3M) was > 100 µM (inactive). For the same compound, the GI50 (OVCAR-3) was > 100 µM (inactive), the GI50 (KM12) was > 100 µM (inactive) and the GI50 (SF-295) was > 100 µM (inactive). For the same compound, the GI50 (SK-MEL-5) was > 100 µM (inactive), the GI50 (UO-31) was 12.8 µM (inactive) and the GI50 (UACC-257) was > 100 µM (inactive). For the same compound, the GI50 (IGROV-1) was > 100 µM (inactive), the GI50 (BT-549) was > 100 µM (inactive) and the GI50 (MOLT-4) was 2.7 µM (inactive). For the same compound, the GI50 (MDA-MB-435) was > 100 µM (inactive), the GI50 (UACC-62) was > 100 µM (inactive) and the GI50 (LOX IMVI) was > 100 µM (inactive). For the same compound, the GI50 (OVCAR-4) was 32.8 µM (inactive), the GI50 (COLO 205) was > 100 µM (inactive) and the GI50 (SK-MEL-2) was 19.8 µM (inactive). For the same compound, the GI50 (SW-620) was 1.95 µM (inactive).
